{"source": "patent US20040143461A1", "about": "“Generating, viewing, interpreting, and utilizing a quantitative database of metabolites” (Lipomics Technologies, Inc., priority 2001, published 2004)", "key": {"[1]": {"experiment": "Body weight, glycemia, insulin and hepatic steatosis in rosiglitazone-treated (NZO×NON)F1 male mice", "assay_type": "in vivo, mouse"}, "[2]": {"conditions": "humans; cited from earlier work"}, "[3]": {"tested_on": "inguinal adipose lipid metabolome", "procedure": "(§1) Mouse tissue and plasma samples were a generous donation to Lipomics Technologies from Dr. Edward Leiter of the Jackson Laboratory (Bar Harbor, Me.). Samples included the plasma, heart, liver and inguinal adipose of mice treated with pharmaceuticals or their corresponding controls.\n(§2) In both studies, five treated and five control mice were used. Following the treatments and the killing of the mice, tissues and plasma were taken, chilled to −80° C. and shipped to the analysis laboratory at Lipomics Technologies in a frozen state.\nThe lipids from plasma and tissues were extracted in the presence of authentic internal standards by the method of Folch et al. (J. Biol. Chem. 226, 497-509, 1957) by homogenization in a fluid extractant consisting of chloroform:methanol (2:1 vol:vol). Plasma (200 μl), or 10 mg inguinal adipose tissue was used for each analysis. For each sample, an appropriate mass of internal standard was added. The internal standard compounds chosen may take many forms, but in one specific example the internal standards added to each plasma sample were: 1.75 μg of heptadecanoic 1-heptadecanoyl-2-lyso-phosphatidycholine (for lysophospholipids), 2.25 micrograms of N-pentadecenoyl-D-erythro-sphingosylphorylcholine (for sphingomyelin), 39.93 micrograms of 1,2 diheptadecanoylphosphatidylcholine (for phosphatidylcholine), 0.93 micrograms of 1,2-diheptadecenoylphosphatidylethanolamine (for phosphatidylethanolamine), 2.09 micrograms of pentadecaenoic acid (for free fatty acids), 32.93 micrograms of triheptadecaenoic acid (for triacylglycerides), 27.27 micrograms of cholesteryl heptadecanoate (for cholesterol esters) and 38.03 micrograms of stigmasterol (for free sterols).\n(§3) The solution mixture consisting of sample, fluid extractant, and internal standards was homogenized by twelve strokes with a ground-glass homogenizer. Following homogenization, 1.8 ml of 0.01 M potassium chloride was added, and the solution was vigorously mixed. The organic fraction containing the lipids and the internal standards was separated from the polar fraction of the mixture by centrifugation. The lipid extract was removed from the mixture and concentrated under a stream of nitrogen in preparation for lipid class separation.\n(§4) The separation of lipid classes was performed by preparative thin-layer chromatography (TLC), essentially as previously described (Watkins et al., Lipids 36:247-254, 2001). To remove any residual metal or other damaging contaminants on the TLC plates, each plate was washed prior to use. Washing the plates is a three-step process that involves impregnating each plate with ethylenediamine tetraacetic acid (EDTA) and rinsing the plates once with methanol and once with chloroform. Each plate is first impregnated with 1 mM EDTA, pH 5.5, by ascending development using the method of Ruiz (J. Lipid Res. 38, 1482-1489, 1997). After each plate was completely developed, it was dried in air overnight. Once dry, each plate was developed in methanol, dried, and developed in chloroform in the same direction as the development with EDTA. The washed plates were then dried in air. Just prior to use, each plate was activated by heating to 110° C. for 10 minutes.\nTo prepare the TLC chamber for chromatography, Whatman (Clifton, N.J.) filter paper was cut into 20×80-cm strips and wrapped around the inside wall of a 30×60×10-cm glass development chamber. One hundred milliliters of the appropriate mobile phase was added to the chamber, and the chambers were sealed and allowed to equilibrate. Chambers were considered equilibrated when the solvent front had completely ascended the filter paper."}, "liver lipid metabolome": {"tested_on": "liver lipid metabolome", "conditions": "treated mice", "procedure": "as §1, §2\n(§5) For the analysis of liver and heart tissues, 25 mg of tissue were placed in a ground glass homogenizer and internal standards were added. The internal standards for use in the analyses of these tissues may take many forms, but in this instance consisted of: 4.75 μg of N-pentadecenoyl-D-erythro-sphingosylphorylcholine; 74.78 μg of 1,2 diheptadecanoylphosphatidylcholine; 33.57 μg of 1,2-diheptadecenoylphosphatidylserine (for phosphatidylserine); 24.13 μg of 1,2-diheptadecenoylphosphatidylethanolamine; 13.38 μg of 1,1′,2,2′-tetraheptadecaenoyl cardiolipin (for cardiolipin); 1.12 μg of pentadecaenoic acid; 27.82 μg of triheptadecaenoic acid; 1.56 μg of cholesteryl heptadecanoate; and 27.70 μg of stigmasterol.\nas §3, §4\n(§6) To prepare the TLC chamber for chromatography, Whatman (Clifton, N.J.) filter paper was cut into 20×80-cm strips and wrapped around the inside wall of a 30×60×10-cm glass development chamber. One hundred milliliters of the appropriate mobile phase was added to the chamber, and the chambers were sealed and allowed to equilibrate. Chambers were considered equilibrated when the solvent front had completely ascended the filter paper. The mobile phase employed for the separation of phospholipid classes (lyso-phospholipids, sphingomyelin, phosphatidylcholine, phosphatidylserine, phosphatidylethanolamine and cardiolipin) was a modification of the solvent system described by Holub and Skeaf (“Nutritional regulation of cellular phosphatidylinositol,” in Meth. Enzym., ed. Conn (Academic Press, Inc., Orlando), pp. 234-243, 1987) consisting of chloroform/methanol/acetic acid/water (100:67:7:4, by vol).\n(§7) For the separation of neutral lipid classes (free fatty acids, free sterols, triacylglycerides and cholesterol esters), a solvent system consisting of petroleum ether/diethyl ether/acetic acid (80:20:1, by vol) was used (Mangold, Thin Layer Chromatography— A Laboratory Handbook (Springer-Verlag, New York), 1969)."}, "heart lipid metabolome": {"tested_on": "heart lipid metabolome", "procedure": "as §1, §2, §5, §3, §4, §6, §7"}, "plasma lipids": {"tested_on": "plasma lipids", "experiment": "Lipomic assessment of CL316,243-treated NZO mice (trial 2), targeting graph versus rosiglitazone", "assay_type": "in vivo, mouse", "from_the_text": "In a targeting display, quantitative metabolite data is compared from two samples that have been subjected to different treatments, for instance treatment with two different drugs or a drug and a test compound. The percentage or absolute changes (versus the standard sample) in the measured metabolites are plotted against each other on a Cartesian graph. This visual system facilitates the comparison of the global and individual metabolic effects of the two conditions being examined. If the two treatments (e.g., two drug treatments) affect the biological system in metabolically similar ways, the data points will fall along a line with a slope of 1, running through the origin (from the lower left to the upper right quadrant, in other words). Outlier data points, where one treatment or the other has a different effect on a metabolite, will lie in the upper left or lower right quadrants, and are therefore easily identified. […] The further off the “equivalent” slope a data point is, the greater the magnitude of differential effect that is being illustrated.\nThe metabolites found in the lower left and the upper right quadrants of the scatter plot (especially those where the X and Y values are similar) represent those likely affected by similar molecular mechanisms. […]"}, "[4]": {"conditions": "amount in parentheses after the % greater"}, "[5]": {"conditions": "treated vs control mice, FIG. 5"}}, "note": "Like-named read-outs stand apart in the source and are kept apart here."}
{"smiles": "CN(CCOc1ccc(CC2SC(=O)NC2=O)cc1)c1ccccn1", "note": "(stereo not drawn) [rosiglitazone]", "values": [{"measurement": "body weight", "setting": "[1]; markedly-obese (NZO×NON)F1 male mice", "result": "increase in body weight"}, {"measurement": "hepatic steatosis", "setting": "[1]; treated animals", "result": "severe hepatic steatosis"}, {"measurement": "weight gain", "setting": "[2]", "result": "often accompanied by weight gain"}, {"measurement": "docosahexaenoic acid in inguinal fat triacylglycerides, greater concentration than control", "setting": "[3]; [4]", "result": "7,000 nmol/g"}, {"measurement": "eicosapentaenoic acid in inguinal fat triacylglycerides, greater concentration than control", "setting": "[3]; [4]", "result": "4,100 nmol/g"}, {"measurement": "a-linolenic acid in inguinal fat triacylglycerides, more than control", "setting": "[3]; amount in parentheses after the % more", "result": "24,300 nmol/g"}, {"measurement": "concentration of total n-3 fatty acids in the inguinal fat triacylglycerides", "setting": "[3]; treated mice", "result": "71,260 nmol/g"}, {"measurement": "inguinal fat triacylglyceride content", "setting": "[3]; treated mice", "result": "9,628 μmol/g"}, {"measurement": "inguinal fat free fatty acids", "setting": "[3]; treated mice, controls 9,900 nmol/g", "result": "13,370 nmol/g"}, {"measurement": "concentration of n-7 fatty acids in inguinal fat triacylglycerides", "setting": "[3]; treated mice, untreated 204 μmol/g", "result": 303, "unit": "µmol/g"}, {"measurement": "inguinal fat free fatty acids, more than controls", "setting": "[3]; treated vs control mice", "result": 35, "unit": "%"}, {"measurement": "inguinal fat triacylglyceride content, lower than controls", "setting": "[3]; treated vs control mice", "result": 5.7, "unit": "%"}, {"measurement": "a-linolenic acid in inguinal fat triacylglycerides, more than control", "setting": "[3]; [5]", "result": 84, "unit": "%"}, {"measurement": "docosahexaenoic acid in inguinal fat triacylglycerides, greater concentration than control", "setting": "[3]; [5]", "result": 612, "unit": "%"}, {"measurement": "eicosapentaenoic acid in inguinal fat triacylglycerides, greater concentration than control", "setting": "[3]; [5]", "result": 522, "unit": "%"}, {"measurement": "total concentration of n-6 fatty acids in inguinal fat, higher than untreated", "setting": "[3]; treated vs untreated mice", "result": "less than 3%"}, {"measurement": "total n-3 fatty acids in inguinal fat triacylglycerides, greater than in untreated mice", "setting": "[3]; treated vs untreated mice", "result": 120, "unit": "%"}, {"measurement": "liver sphingomyelin concentration", "setting": "liver lipid metabolome; untreated 1,890 nmol/g", "result": "1,180 nmol/g"}, {"measurement": "Total hepatic triacylglycerides", "setting": "liver lipid metabolome; untreated 81,300 nmol/g", "result": "150,400 nmol/g"}, {"measurement": "14:0 fatty acid associated with heart sphingomyelin, more than the control sample", "setting": "heart lipid metabolome; FIG. 5 heat map, test sample vs control sample", "result": 80, "unit": "%"}, {"measurement": "Docosahexaenoic acid (22:6n3) in heart cardiolipin", "setting": "heart lipid metabolome; treated mice, control 2,200 nmol/g", "result": 950, "unit": "nmol/g"}, {"measurement": "linoleic acid (18:2n6) in heart cardiolipin", "setting": "heart lipid metabolome; treated mice, control 4,550 nmol/g", "result": "8,850 nmol/g"}, {"measurement": "mean cardiolipin content of hearts", "setting": "heart lipid metabolome; treated mice, untreated 2,500 nmol/g", "result": "3,000 nmol/g"}, {"measurement": "average concentration of total free fatty acids in the heart", "setting": "heart lipid metabolome; treated mice, untreated 5,100 nmol/g", "result": "2,500 nmol/g"}, {"measurement": "heart free fatty acids of the saturated n-3, n-6, and n-9 families, lower than in untreated mice", "setting": "heart lipid metabolome; treated vs untreated mice, FIG. 7", "result": "approximately 50%"}]}
{"smiles": "C[C@H](Cc1ccc2c(c1)OC(C(=O)[O-])(C(=O)[O-])O2)NC[C@H](O)c1cccc(Cl)c1.[Na+].[Na+]", "note": "[CL316,243]", "values": [{"measurement": "similarity of effect on plasma lipids to rosiglitazone", "setting": "plasma lipids; targeting graph FIG. 6, NZO mice, 0.001% in chow, four weeks", "result": "largely validated"}, {"measurement": "increase in the de novo synthesis of fatty acids", "setting": "plasma lipids; targeting graph FIG. 6, upper left quadrant metabolites (16:1n7, 18:1n7, 20:3n9)", "result": "not induced"}]}
